Measured values reported in patent US20050288255A1, “Modulation of lysophosphatidylcholine and treatment of diet-induced conditions” (priority 2004, published 2005).

What was measured:
Type in all cases: cell-based
HepG2 cells = assay: Insulin-stimulated [14C]glucose conversion to glycogen in HepG2 cells with varying LPC; conditions: 100 nM insulin, under reduced levels of lysophosphatidylcholine, FIG. 5(a)
Experimental: (§1) Effects of LPC on glucose metabolism were assessed using (a) HepG2 cells as a model of liver cells, (b) differentiated L6 myotubes as a model of skeletal muscle cells and (c) differentiated 3T3L1 cells as a model of adipocytes. To assess usage of glucose for glycogen biosynthesis, cells were incubated in Krebs Ringer Hepes medium with 5 mM [^14C]glucose, 100 nM insulin, and varying concentrations of LPC. At the end of the incubation period, the cells were washed and detached from the plates with 30% KOH. Carrier glycogen was then added to the cell lysate at a concentration of 40 mg/ml and then boiled for 30 min. Glycogen was precipitated from the solution by the addition of 800 μl 95% ice-cold ethanol and centrifuged at 1000×g. The pellet was re-suspended in buffer, and an aliquot of the sample was counted in a scintillation counter to determine the amount of [^14C]glucose converted to glycogen. Glucose metabolism by differentiated 3T3L1 cells was assessed based on cellular uptake of [^3H]deoxyglucose. The 3T3L1 cells were incubated in Krebs Ringer Hepes medium with 5 mM [^3H]deoxyglucose, 100 nM insulin, and varying concentration of LPC. Glucose uptake was assessed based on cellular accumulation of [^3H]deoxyglucose after a 30 min incubation period.

L6 myotube = assay: Insulin-stimulated [14C]glucose conversion to glycogen in differentiated L6 myotubes with varying LPC; conditions: 100 nM insulin, under reduced levels of lysophosphatidylcholine, FIG. 5(b)
Experimental: as §1

3T3L1 adipocytes = assay: Insulin-stimulated [3H]deoxyglucose uptake in differentiated 3T3L1 adipocytes with varying LPC; conditions: 100 nM insulin, 30 min, under reduced levels of lysophosphatidylcholine, FIG. 5(c)
Experimental: as §1

Measured: insulin-stimulated glucose metabolism

lysophosphatidylcholine
increased: all assays above
